Data: US11866416B2, “Streptococcus mutans glucosyl transferase inhibitors for dental caries therapy” (UAB Research Foundation, priority 2018, dated 2024)
Like-named read-outs stand apart in the source and are kept apart here.

Assays:
[1] = test system: S. mutans biofilm; test: S. mutans biofilm formation and inhibition assay (96-well plates, crystal violet); type: cell-based, Streptococcus mutans; conditions: for Biofilm inhibition 200 μM (%): Table 6, chalcones, NI = no inhibition
Description: Biofilm assays using 96-well flat-bottom polystyrene microtiter plates were performed to evaluate S. mutans biofilm formation at various conditions as described (Liu et al. (2011) Antimicrobial Agents and Chemotherapy 55, 2679; Zhang et al. (2015) International Journal of Antimicrobial Agents 46, 174), the disclosures of which are incorporated herein by reference in their entirety). Each assay was replicated three times. Compounds that inhibited biofilm formation at minimum concentration (MBIC) were determined by serial dilutions.
S. mutans biofilm formation and inhibition assays. […] Each assay was replicated three times. Minimum biofilm inhibitory concentration (MBIC) of compounds was determined by serial dilutions.
S. mutans biofilm formation and inhibition assays. Biofilm assays using 96-well flat-bottom polystyrene microtiter plates were performed to evaluate S. mutans biofilm formation at various conditions as described. Each assay was replicated […]. Compounds that inhibited 50% biofilm formation were determined by serial dilutions.
S. mutans biofilm formation and inhibition assays. A well-established protocol to study S. mutans biofilm formation in 96-well flat-bottom polystyrene microtiter plates was used, in triplicate (Mattos-Graner, R. O.; Napimoga, M. H.; Fukushima, K.; Duncan, M. J.; Smith, D. J., Comparative analysis of Gtf isozyme production and diversity in isolates of Streptococcus mutans with different biofilm growth phenotypes. Journal of clinical microbiology 2004, 42 (10), 4586-4592). The stock solutions were made up in 100% DMSO, and final concentration of DMSO used in the assays was 1%. Minimum biofilm inhibitory concentration (MBIC) of compounds was determined by serial dilutions.

[2] = test system: S. mutans; test: microbe, parasite or virus in culture; type: cell-based, Streptococcus mutans; conditions: for MIC50: Streptococcus mutans, Table 2, >300 = no inhibition up to 300 μM, read-out: Growth Inhibition MIC50; for Growth inhibition 200 μM (%): Table 6, chalcones, NI = no inhibition
Description: Cell viability of S. mutans, S. gordonii, S. sanguinis, Aggregatibacter actinomycetemcomitans and Actinomyces. […] The number of colony-forming units (CFU) per milliliter of each sample treated with selected compounds at different concentrations was enumerated after incubation for 24 h at 37° C. and compared to the values obtained from the DMSO control group. Overnight broth cultures were transferred by 1:50 dilutions into fresh THB medium and were allowed to grow until mid-exponential phase (OD470 nm 0.6) before transfer to 96-well plates containing desired concentration of the compound. After 16 h incubation, bacterial growth was measured at OD470, and normalized to the DMSO control (100%).
Cell viability of S. mutans and commensal S. gordonii and S. sanguinis. Effects of lead small molecules on cell viability were examined. The number of colony-forming units (CFU) per milliliter for each compound at different concentrations was determined after incubation for 24 h at 37° C. and compared to the values obtained from the DMSO control group.
Cell viability of S. mutans and commensal S. gordonii and S. sanguinis. […] DMSO served as a control group and provided a relative comparison for the number of colony-forming units (CFU) per milliliter for each compound at different concentrations was determined after incubation for 24 h at 37° C. The final concentration of DMSO used in the assays was 1%.

[3] = Streptococcus mutans, Table 1, >500 = no inhibition up to 500 μM, read-out: Biofilm Inhibition IC50
[4] = Streptococcus mutans, Table 2, read-out: Biofilm Inhibition IC50
[5] = read-out: S. mutans biofilm IC50

Compound | IC50 [1, 3] [µM] | IC50 [1, 4] [µM] | MIC50 [2] [µM] | also measured
N=C(N)c1ccc(/C=C/c2ccc(C(=N)N)cc2O)cc1 [Compound 5] |  |  |  | effect on S. mutans biofilm in the preliminary screen ([1]; chalcones, 200 μM): did not possess any bactericidal or anti-biofilm properties; IC50 [1, 5]: 104 µM; S. mutans growth IC50 / MIC50 [2]: 179 µM; effect on S. mutans growth ([2]; chalcones, up to 200 μM): did not possess any bactericidal or anti-biofilm properties
Oc1cc(O)cc(/C=C/c2ccc(O)c(O)c2)c1 [Compound 8] |  |  |  | Biofilm inhibition 200 μM (%) ([1]; 200 μM): 81 ± 2%; IC50 [1, 5]: 52 µM; Growth inhibition 200 μM (%) ([2]; 200 μM): 82 ± 2%
COc1ccc(/C=C/C(=O)c2ccc(OC)c(OC)c2)cc1O [Compound 13] |  |  |  | Biofilm inhibition 200 μM (%) ([1]; 200 μM): 27 ± 4%; biofilm inhibition at 200 μM ([1]; chalcones, 200 μM): 30%; activity of stilbenes against S. mutans biofilm ([1]; stilbenes): not active against biofilm and growth; Growth inhibition 200 μM (%) ([2]; 200 μM): 30 ± 0.7%; growth inhibition at 200 μM ([2]; chalcones, 200 μM): 30%; activity of stilbenes against S. mutans growth ([2]; stilbenes): not active against biofilm and growth
CC(C)(C)OC(=O)NCc1ccccc1NC(=O)c1cc2cc([N+](=O)[O-])ccc2[nH]1 [Compound 298C9] |  | 26.8 | > 300 | 
NCc1ccccc1NC(=O)c1cc2cc([N+](=O)[O-])ccc2[nH]1 [Compound 298C10] |  | 98.3 | > 300 | 
COC(=O)c1cccc(NC(=O)c2cc3ccccc3s2)c1 [Compound 298D5] |  | 121 | > 300 | 
NC(=O)c1ccccc1OC(=O)c1cnc2ccccc2c1 [Compound 298F7] |  | 30.4 | > 300 | 
COC(=O)c1cccc(NC(=O)c2ccc3ccccc3n2)c1 [Compound 298G5] |  | 92.3 | > 300 | 
COC(=O)c1ccc(NC(=O)c2ccc3ccccc3n2)cc1 [Compound 298G6] |  | 106 | > 300 | 
NC(=O)c1ccccc1OC(=O)c1ccc2ccccc2n1 [Compound 298G7] |  | 105 | > 300 | 

Second part, led by results:

IC50 [1, 3] [µM] | IC50 [1, 4] [µM] | MIC50 [2] [µM] | Compound | also measured
146 | 146 | > 300 | NC(=O)c1ccccc1NC(=O)c1c[nH]c2ccccc12 [Compound 3F] | 
68.8 | 68.8 | > 300 | COc1ccc2[nH]c(C(=O)Nc3ccccc3C(N)=O)cc2c1 [Compound 3G] | 
106 | 106 | > 300 | NC(=O)c1ccccc1NC(=O)c1cnc2ccc(Br)cc2c1 [Compound 3J] | 
103 | 103 | > 300 | NC(=O)c1ccccc1NC(=O)c1cc2cc([N+](=O)[O-])ccc2o1 [Compound 3K] | 
42.3 | 42.3 | > 300 | NC(=O)c1cccc(NC(=O)c2cc3cc([N+](=O)[O-])ccc3s2)c1 [Compound 3P] | 
50.4 | 50.4 | > 300 | NC(=O)c1ccccc1OC(=O)c1cc2cc([N+](=O)[O-])ccc2s1 [Compound 3Q] | 
8.6 | 8.6 | > 300 | NC(=O)c1cccc(NC(=O)c2cnc3ccccc3c2)c1 [Compound 3R] | 
92.3 | 92.3 | > 300 | COC(=O)c1ccc(NC(=O)c2cnc3ccccc3c2)cc1 [Compound 3S] | 
54.4 | 54.4 | > 300 | COC(=O)c1cccc(NC(=O)c2cc3cc([N+](=O)[O-])ccc3s2)c1 [Compound 3U] | 
41.2 | 41.2 | > 300 | COC(=O)c1ccc(NC(=O)c2cc3ccccc3s2)cc1 [Compound 3V] | 
56.6 | 56.6 | > 300 | COc1ccc2[nH]c(C(=O)Nc3cccc(C(N)=O)c3)cc2c1 [Compound 3W] | 
116 | 116 | > 300 | NC(=O)c1cccc(NC(=O)c2cc3ccccc3s2)c1 [Compound 3X] | 
45.6 | 45.6 | > 300 | NC(=O)c1ccc(NC(=O)c2cc3ccccc3s2)cc1 [Compound 3Y] | 
38.8 | 38.8 | > 300 | NC(=O)c1cccc(NC(=O)c2cc3cc([N+](=O)[O-])ccc3o2)c1 [Compound 3Z] | 
